Reference: patent US20170202939A1, “PERSONALIZED CANCER VACCINES AND METHODS THEREFOR” (Washington University, priority 2014, published 2017)
Where two headings read alike, the source gives them in different places. No end group written: not given here.

What was measured:
[1] = target: T1, HLA-A*02:01 (Homo sapiens, UniProt P04439, D140Y/D185E/D98H/E176V/E277Q/G131W/G231S/I119V/I121R/I166T/I218V/L300P/L318F/N151K/N90K/P208A/P217A/Q86G/Q94H/R138H/R169H/T345S); assay: fluorescence polarization-based competitive peptide binding assay
T1 construct: purchased Pure Protein, L.L.C

[2] = tested on: neoantigen-specific CD8+ T cells; assay: immune monitoring of vaccinated patients, HLA/peptide dextramer (tetramer) assay on cultured PBMC; assay type: in vivo, human; settings: for Immunogenicity: AAS-directed CD8+ T cell response in vaccinated patient; for frequency of neoantigen-specific CD8+ T cells / T cell response upon vaccination: post-vaccine PBMC, dextramer assay; for frequency of neoantigen-specific CD8+ T cells: upon culture, at the peak of response; for Spontaneous Immunity: pre-vaccine (naturally-occurring) CD8+ T cell response, immune monitoring assay; for pre-existing (naturally occurring) T cell immunity: pre-vaccine PBMC samples after in vitro stimulation
Procedure: Immunologic monitoring (Examples 1-10). Immunologic analysis to evaluate the kinetics and magnitude of T cell response to gp100 peptides was performed using PBMCs collected weekly (prior to vaccination and until week 21. Fresh PBMCs obtained by Ficoll-Hypaque gradient centrifugation were adjusted to 2×10^6 cells/ml in Stemline media (Sigma-Aldrich) containing 5% human AB-serum, and dispersed at 1 ml/well in 24-well plates. Cultures were set up for the gp100 peptides and the CMV pp65 peptide (positive peptide control). Cultures were pulsed with 40 μg/ml peptide and 50 U/ml IL-2 fed starting at 48 hours and every other day thereafter. On day 12 (peak of response; the inventors' unpublished observation), cultures were harvested, counted, and stained for flow cytometry analysis. To assess the antigen-specific T cell frequency, cells were stained with HLAA*0201/peptide tetramers (Beckman Coulter) for 30 minutes at room temperature, followed by addition of FITC-conjugated CD4, CD14, CD19, and CD56 and allophycocyanin-conjugated CD8 (Invitrogen) for 15 minutes at 4° C. Cells were washed and resuspended in FACS buffer, and 7AAD was added 5 minutes before analysis. Control CMV pp65-specific CD8+ T cells were detected in all CMV-seropositive patients before and after immunization. A negative HLA-A*0201/HIV gag peptide tetramer control was included. 25,000 events in the CD8+ gate were collected using a hierarchical gating strategy that included FSC/SSC and excluded 7AAD+ (dead) cells and CD4+CD14+CD19+CD56+ cells. Data were acquired and analyzed using Flow-Jo software.
To examine the kinetics and magnitude of T cell immunity to AAS peptides upon vaccination, peripheral blood mononuclear cells (PBMC) were collected prior to vaccination and weekly thereafter. The CD8+ T cell response to each peptide was analyzed using a HLA-A*02:01/AAS-peptide dextramer assay after a single round of in vitro stimulation. FIG. 30A illustrates kinetics of immune responses to neoantigens. Time is recorded in weeks (0 indicates pre-vaccination). Culture conditions and staining details are described infra. Antigen-specific numbers were calculated based on dextramer percentage and total live cell yields. Immunologic analysis to evaluate the kinetic and magnitude of T cell response to AAS-encoding and gp100-derived peptides was performed using PBMC collected weekly, starting before DC vaccination (Pre-vaccine in the figures) as described (Carreno, B. M., et al., J. Clin. Invest., 123, 3383-3394, 2013). Briefly, fresh PBMC obtained by Ficoll-Paque PLUS gradient centrifugation were cultured with 40 ug/mL peptide and IL-2 (50 U/mL). On day 10 (peak of response, unpublished data, labeled “Post-Vaccine” in the figures), neoantigen specific T cell frequencies were determined by staining with HLA-A*02:01/peptide dextramers (Immudex), followed by addition of FITC-CD4, -CD14, -CD19 (Invitrogen) and ALEXA® 488-CD56 (BD Pharmigen), APC-CD8 (Invitrogen). Cells were washed, resuspended in FACS buffer containing 7AAD. Twenty five thousand events in the CD8+ gate were collected using a hierarchical gating strategy that included FSC/SSC and excluded 7AAD-positive (dead cells) and CD4/14/19/56-positive cells. PBMC/CD8+ T cells derived from an unrelated HLA-A*02:01 patient were used as negative controls for assessing specificity of HLA-A*02:01/AAS-peptide dextramers (data not shown). Data were acquired and analyzed using Flow-Jo software. […] FIG. 30B illustrates the frequency of neoantigen specific T cells in CD8+ populations isolated directly from PBMC samples and after ex-vivo expansion using autologous DC and artificial antigen presenting cells. For dominant neoantigens TMEM48 F169L, SEC24A P469L and EXOC8 Q656, results are shown for samples obtained before vaccination (Pre-vaccine) and after 3 vaccine doses (Post-vaccine). For remaining neoantigens, results obtained with post-vaccine PBMC samples are shown. […]

[3] = fluorescence polarization-based competitive peptide-binding assay, high affinity log(IC50; nM) <3.7, read-out: Experimental Affinity log(IC50) (converted)

Sequence | IC50 [1, 3] [nM] | Immunogenicity [2] | frequency of neoantigen-specific CD8+ T cells [2] [%] | Spontaneous Immunity [2] | pre-existing (naturally occurring) T cell immunity [2] | IC50 [1] [nM] | T cell response upon vaccination [2]
CLNEYHLFL | 1230 | Yes | 23 | Yes | could be detected in pre-vaccine PBMC samples |  | 
IILVAVPHV |  |  | 89 |  | could be detected in pre-vaccine PBMC samples |  | 
KLMNIQQKL |  | Yes | 47 | No |  | 1170 | reveal two additional ones
MLGEQLFPL | 224 | Yes | 84 | No |  |  | 
QLSCISTYV | 1260 | Yes | 42 | No |  |  | reveal two additional ones
